In paper PMC4956231, “Molecular Mechanisms for Drug Hypersensitivity Induced by the Malaria Parasite’s Chloroquine Resistance Transporter” (PLoS Pathogens, 2016):
Where two headings read alike, the source gives them in different places. Marks after values point to notes of the source that are not given here.

Tests used:
[1] = system: C=C[C@H]1C[N@@]2CC[C@H]1C[C@@H]2[C@@H](O)c1ccnc2ccc(OC)cc12; test: cells, lysate or membranes; details: other: transport via 76I-PfCRT^K1 in oocytes; CQ pH 6.0, quinine and quinidine pH 5.0; 27.5 °C
[2] = system: C=C[C@H]1C[N@@]2CC[C@H]1C[C@H]2[C@H](O)c1ccnc2ccc(OC)cc12; test: cells, lysate or membranes; details: other: transport via 76I-PfCRT^K1 in oocytes; CQ pH 6.0, quinine and quinidine pH 5.0; 27.5 °C
[3] = system: parasites carrying isoforms of PfCRT^CQR; details: in vitro studies, cited from earlier work
[4] = target: PfCRT^Dd2 (Plasmodium falciparum, UniProt Q9N623, A220S/I356T/K76T/M74I/N326S/N75E/Q271E/R371I); format: cell-based; details: extracellular concentrations of 1 and 2 mM; pH 5.5; 15 μM unlabeled CQ
Method: The uptake of [^3H]CQ (0.25 μM) was measured in the absence (solvent control) or presence of the test compounds (extracellular concentrations of 1 and 2 mM). The assays were conducted at pH 5.5 and in the presence of 15 μM unlabeled CQ.

[5] = system: noninjected oocytes and oocytes expressing PfCRT variants or PfNT1; test: Trans-stimulation of [3H]CQ uptake by microinjected compound, all oocyte types; format: cell-based, Plasmodium falciparum; details: any of the oocyte types, estimated intracellular concentrations 5 and 10 mM
Method: A subset of experiments measured the ability of unlabeled amantadine to trans-stimulate the uptake of [^3H]CQ into the oocyte. Immediately prior to the commencement of the experiment, the oocytes (days 3–4 post-injection of the cRNA) were microinjected with either amantadine (estimated intracellular concentrations of 1, 2.5, 5, 10, 15, or 20 mM) or a control treatment (buffer, spermine, or histidine; the estimated intracellular concentrations of spermine and histidine were 5 and 10 mM). The volume injected was 50 nL and the intracellular concentrations were calculated using previous estimates of the volume of stage V-VI oocytes (~400 nL [77]). The resealed oocytes were then incubated at 16–18°C in OR^2+ buffer for approximately 5 min and the influx of [^3H]CQ was measured as described above. […] The Michaelis-Menten equation was then fitted to the data to derive the kinetic parameters for the trans-stimulation of [^3H]CQ transport by amantadine.

[6] = system: 76N-PfCRT^K1; test: [3H]drug transport into Xenopus oocytes expressing PfCRT; format: cell-based, Plasmodium falciparum; details: transport via 76N-PfCRT^K1 in oocytes, CQ pH 6.0, quinine and quinidine pH 5.0; for Km: read-out: Apparent Km
Method: (§1) For each treatment, 10 oocytes were transferred to a 5 mL polystyrene round bottom tube (Falcon) and washed twice with 3.5 mL of ND96 buffer, with the residual buffer removed by pipette. […] The assay was terminated by removing the reaction buffer with a pipette and washing the oocytes twice with 3.5 mL of ice-cold ND96 buffer. Each oocyte was transferred to a separate well of a white 96-well plate (NUNC or PerkinElmer), incubated overnight at room temperature in 30 μL of 10% SDS, and mixed on an orbital shaker the following day for approximately 5 min. The lysed oocyte was then combined with 150 μL of MicroScint-40 microscintillant (PerkinElmer), the plate covered with a TopSeal-A (PerkinElmer), and the radioactivity measured with a PerkinElmer MicroBeta^2 microplate liquid scintillation analyzer.
Note that noninjected oocytes and oocytes expressing PfCRT^3D7 take up [^3H]CQ to similar (low) levels via simple diffusion of the neutral species of the drug; this represents the ‘background’ level of [^3H]CQ accumulation in oocytes (refer to Martin et al. for full data and discussion).

[7] = system: noninjected oocytes; test: [3H]drug uptake into noninjected oocytes (background accumulation); format: cell-based, Xenopus laevis; details: [3H]drug […]
Method: as §1

[8] = target: T1, 76I-PfCRT^K1 (Plasmodium falciparum, UniProt Q9N623, A220S/K76I/M74I/N326S/N75E/Q271E/R371I); format: cell-based; details: for Apparent Vmax: transport via 76I-PfCRT^K1 in oocytes, CQ pH 6.0, quinine and quinidine pH 5.0
Method: as §1

[9] = system: PfCRT^Dd2; test: [3H]drug transport into Xenopus oocytes expressing PfCRT; format: cell-based, Plasmodium falciparum; details: oocytes expressing PfCRT^Dd2; [3H]drug […], pH 5.0, 1 μM unlabeled drug (S4 Fig)
Method: as §1

[10] = system: PfCRT^K1; test: as above; format: cell-based, Plasmodium falciparum; details: for rate of uptake mediated by PfCRT^K1, greater than that measured for PfCRT^Dd2: S4 Fig; for rate of uptake: oocytes expressing PfCRT^K1, [3H]drug […], pH 5.0, 1 μM unlabeled drug (Fig 2B, C); for rate of transport, times lower than that measured for CQ: total drug 1.25 μM vs ~12-fold higher total CQ
Method: as §1

[11] = system: PfCRT^CQR; details: oocyte system, inhibitor of PfCRT^CQR; cited from earlier work
[12] = system: PfCRT^K1; test: Inhibition of [3H]amantadine transport in oocytes; format: cell-based, Plasmodium falciparum; details: via PfCRT^K1 in oocytes
Method: as §1

[13] = target: 76I,369F-PfCRT^K1 (Plasmodium falciparum, UniProt Q9N623, A220S/K76I/M74I/N326S/N75E/Q271E/R371I/V369F); test: Inhibition of [3H]amantadine transport in oocytes; format: cell-based; details: via 76I,369F-PfCRT^K1 in oocytes
Method: as §1

[14] = target: T1, 76I-PfCRT^K1; test: Inhibition of [3H]amantadine transport in oocytes; format: cell-based; details: via 76I-PfCRT^K1 in oocytes
Method: as §1

[15] = artemisinin and/or dihydroartemisinin
[16] = pH 5.0, 1 μM unlabeled drug (Fig 2B, C)
[17] = pH 5.0, 1 μM unlabeled drug (S4 Fig)
[18] = transport via PfCRT^K1 in oocytes, CQ pH 6.0, quinine and quinidine pH 5.0

T1 sequence (Q9N623 whole entry A220S/K76I/M74I/N326S/N75E/Q271E/R371I): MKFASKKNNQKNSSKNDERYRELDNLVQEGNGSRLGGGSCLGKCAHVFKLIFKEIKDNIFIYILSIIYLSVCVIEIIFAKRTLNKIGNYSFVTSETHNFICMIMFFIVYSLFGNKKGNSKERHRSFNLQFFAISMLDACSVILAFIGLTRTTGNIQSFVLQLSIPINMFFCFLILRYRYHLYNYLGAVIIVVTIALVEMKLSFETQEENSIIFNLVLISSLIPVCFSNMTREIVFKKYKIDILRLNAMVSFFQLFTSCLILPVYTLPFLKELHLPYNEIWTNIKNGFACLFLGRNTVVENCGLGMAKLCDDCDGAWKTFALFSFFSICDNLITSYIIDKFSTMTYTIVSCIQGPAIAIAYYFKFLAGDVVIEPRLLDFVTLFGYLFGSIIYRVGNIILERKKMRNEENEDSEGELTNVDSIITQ
Sequence of 76I,369F-PfCRT^K1 (Q9N623 whole entry A220S/K76I/M74I/N326S/N75E/Q271E/R371I/V369F): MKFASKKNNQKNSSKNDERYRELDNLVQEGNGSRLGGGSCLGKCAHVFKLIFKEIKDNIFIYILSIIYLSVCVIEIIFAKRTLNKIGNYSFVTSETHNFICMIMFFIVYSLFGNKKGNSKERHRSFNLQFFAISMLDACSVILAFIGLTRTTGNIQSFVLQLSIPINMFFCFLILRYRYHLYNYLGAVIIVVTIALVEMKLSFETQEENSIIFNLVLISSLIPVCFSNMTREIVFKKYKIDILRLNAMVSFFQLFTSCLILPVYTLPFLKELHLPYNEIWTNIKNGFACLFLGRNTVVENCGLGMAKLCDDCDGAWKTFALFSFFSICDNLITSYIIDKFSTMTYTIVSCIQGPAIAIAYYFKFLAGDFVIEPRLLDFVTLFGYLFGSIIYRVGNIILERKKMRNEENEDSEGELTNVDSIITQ
Sequence of PfCRT^Dd2 (Plasmodium falciparum, UniProt Q9N623, A220S/I356T/K76T/M74I/N326S/N75E/Q271E/R371I) (Q9N623 whole entry M74I/N75E/K76T/A220S/Q271E/N326S/I356T/R371I): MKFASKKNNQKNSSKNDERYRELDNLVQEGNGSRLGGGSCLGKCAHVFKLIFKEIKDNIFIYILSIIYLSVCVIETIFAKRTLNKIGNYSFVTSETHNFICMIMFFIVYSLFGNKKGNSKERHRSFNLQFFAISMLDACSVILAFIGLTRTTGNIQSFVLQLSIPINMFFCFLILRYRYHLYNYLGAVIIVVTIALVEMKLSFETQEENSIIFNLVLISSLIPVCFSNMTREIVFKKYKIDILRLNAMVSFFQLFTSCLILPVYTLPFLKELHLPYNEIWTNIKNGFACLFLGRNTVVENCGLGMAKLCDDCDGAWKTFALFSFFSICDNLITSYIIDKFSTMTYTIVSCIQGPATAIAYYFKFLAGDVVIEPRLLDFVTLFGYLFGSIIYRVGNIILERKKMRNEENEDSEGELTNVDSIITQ

**Q.** Which Km [1] does the source give for “76I-PfCRT^K1 (Plasmodium falciparum; A220S/K76I/M74I/N326S/N75E/Q271E/R371I)” here?
**A.** 24.1 ± 3.0^f (6) μM

**Q.** And the Km [2]?
**A.** 0.42 ± 0.04^c,f (4) μM

**Q.** With `C[C@@H]1CC[C@H]2[C@@H](C)C(=O)O[C@@H]3O[C@@]4(C)CC[C@@H]1[C@]32OO4` [artemisinin] as the compound, how does the “decrease in the IC50 induced by isoforms of PfCRT^CQR (hypersensitivity)” value (“decrease in the IC50 induced by isoforms” below) [3, 15] read?
**A.** 1.9–3.7 fold

**Q.** With `C[C@H]1[C@@H](O)O[C@@H]2O[C@@]3(C)CC[C@H]4[C@H](C)CC[C@@H]1[C@@]24OO3` [dihydroartemisinin] as the compound, how does the “decrease in the IC50 induced by isoforms” value [3, 15] read?
**A.** 1.9–3.7 fold

**Q.** For `N[C@@H](Cc1c[nH]cn1)C(=O)O` [histidine], which “effect on accumulation of [3H]CQ in oocytes expressing PfCRT” value [4] is on record?
**A.** do not inhibit

**Q.** And the “effect on [3H]CQ uptake (trans-stimulation)” value [5]?
**A.** neither spermine nor histidine altered

**Q.** Which “decrease in the IC50 induced by isoforms” value [3] does the source give for `CCCCN(CCCC)CC(O)c1cc(Cl)cc2c1-c1ccc(Cl)cc1/C2=C/c1ccc(Cl)cc1` (centres unmarked) [lumefantrine] here?
**A.** 1.5–3.2 fold

**Q.** Which results are given for `C=C[C@H]1C[N@@]2CC[C@H]1C[C@@H]2[C@@H](O)c1ccnc2ccc(OC)cc12` [quinidine]?
**A.** Apparent Vmax [6]: 14.1 ± 0.9^e,g (6) pmol per oocyte/h; Km [6]: 94 ± 4 µM; rate of uptake [7, 16]: 0.063 ± 0.010 pmol per oocyte/h; rate of uptake [7, 17]: 0.05 ± 0.01 pmol per oocyte/h; Apparent Vmax [8]: 7.2 ± 0.5^e,g (6) pmol per oocyte/h; rate of uptake [9]: 0.30 ± 0.07 pmol per oocyte/h; rate of uptake mediated by PfCRT^K1, greater than that measured for PfCRT^Dd2 [10]: 17–35%; rate of uptake [10]: 0.38 ± 0.08 pmol per oocyte/h; rate of transport, times lower than that measured for CQ [10]: 10–15 times; Apparent Vmax [10, 18]: 24.4 ± 1.6 (7) pmol per oocyte/h; Km ([10]; transport via PfCRT^K1 in oocytes, CQ pH 6.0, quinine and quinidine pH 5.0, 76K-PfCRT^K1 control subtracted, read-out: Apparent Km): 84 ± 1 µM

**Q.** For `C=C[C@H]1C[N@@]2CC[C@H]1C[C@H]2[C@H](O)c1ccnc2ccc(OC)cc12` [quinine], which “Apparent Vmax” value [6] is on record?
**A.** 13.0 ± 1.0^d,f (6) pmol per oocyte/h

**Q.** And the Km [6]?
**A.** 41 ± 2.6 µM

**Q.** And the rate of uptake [7, 16]?
**A.** 0.10 ± 0.01 pmol per oocyte/h

**Q.** What about the rate of uptake [7, 17] of the same compound?
**A.** 0.10 ± 0.01 pmol per oocyte/h

**Q.** And the “Vmax of 76I-PfCRT^K1, times lower than the value obtained for PfCRT^K1” value ([8]; quinine transport)?
**A.** ~ 115 times

**Q.** What about the “Apparent Vmax” value [8] of the same compound?
**A.** 0.09 ± 0.01^c,f (4) pmol per oocyte/h

**Q.** What about the rate of uptake [9] of the same compound?
**A.** 0.44 ± 0.04 pmol per oocyte/h

**Q.** What about the “rate of uptake mediated by PfCRT^K1, greater than that measured for PfCRT^Dd2” value [10] of the same compound?
**A.** 17–35%

**Q.** And the rate of uptake [10]?
**A.** 0.55 ± 0.03 pmol per oocyte/h

**Q.** And the “rate of transport, times lower than that measured for CQ” value [10]?
**A.** 10–15 times

**Q.** And the “Apparent Vmax” value [10, 18]?
**A.** 10.3 ± 0.8 (7) pmol per oocyte/h

**Q.** Which IC50 [11] does the source give for `CC(C)(C)NC(=O)[C@@H]1C[C@@H]2CCCC[C@@H]2CN1C[C@@H](O)[C@H](Cc1ccccc1)NC(=O)[C@H](CC(N)=O)NC(=O)c1ccc2ccccc2n1` [saquinavir] here?
**A.** 13 ± 1 µM

**Q.** What about the “effect on [3H]amantadine transport” value [12] of the same compound?
**A.** inhibited

**Q.** What about the “effect on [3H]amantadine transport” value [13] of the same compound?
**A.** inhibited

**Q.** And the “effect on [3H]amantadine transport” value [14]?
**A.** inhibited

**Q.** Which “effect on accumulation of [3H]CQ in oocytes expressing PfCRT” value [4] does the source give for `NCCCNCCCCNCCCN` [spermine] here?
**A.** do not inhibit

**Q.** And the “effect on [3H]CQ uptake (trans-stimulation)” value [5]?
**A.** neither spermine nor histidine altered

**Q.** Which “effect on [3H]amantadine transport” value [12] does the source give for `COc1ccc(CCN(C)CCCC(C#N)(c2ccc(OC)c(OC)c2)C(C)C)cc1OC` (centres unmarked) [verapamil] here?
**A.** inhibited

**Q.** What about the “effect on [3H]amantadine transport” value [13] of the same compound?
**A.** inhibited

**Q.** And the “effect on [3H]amantadine transport” value [14]?
**A.** inhibited
